In ChEMBL document CHEMBL5113373, “Tryptophan derived natural marine alkaloids and synthetic derivatives as promising antimicrobial agents” (Eur J Med Chem, 2021):
pEC50, pIC50: −log10 of the molar value. ≈ marks a conversion by molar mass, not a printed value.

Tests used:
[1] = test system: Escherichia coli; assay: Antibacterial activity against Escherichia coli assessed as bacterial growth inhibition by agar dilution method; format: functional
[2] = test system: Klebsiella aerogenes; assay: Antibacterial activity against Enterobacter aerogenes assessed as bacterial growth inhibition by agar dilution method; format: functional
[3] = test system: Trichophyton mentagrophytes; assay: Antifungal activity against Trichophyton mentagrophytes assessed as fungal growth inhibition; format: functional, organism-based
[4] = test system: Vibrio natriegens; assay: Antimicrobial activity against Vibrio natriegens ATCC 14048 assessed as microbial growth inhibition incubated for 48 hrs by spectrophotometry; format: functional
[5] = test system: Aspergillus niger; assay: Antifungal activity against Aspergillus niger assessed as fungal growth inhibition; format: functional, organism-based
[6] = test system: Staphylococcus aureus; assay: Antimicrobial activity against methicillin-resistant Staphylococcus aureus assessed as microbial growth inhibition by broth microdilution method; format: functional
[7] = test system: Acinetobacter baumannii; assay: Antibacterial activity against Acinetobacter baumannii ATCC 19606 assessed as bacterial growth inhibition incubated for 24 hrs by broth micro dilution method; format: functional
[8] = test system: Pseudomonas aeruginosa; assay: Antibacterial activity against Pseudomonas aeruginosa ATCC 9027 assessed as bacterial growth inhibition incubated for 24 hrs by agar diffusion method; format: functional
[9] = test system: Staphylococcus aureus; assay: Antibacterial activity against Staphylococcus aureus ATCC 6538 assessed as bacterial growth inhibition incubated for 24 hrs by agar diffusion method; format: functional
[10] = test system: Candida albicans; assay: Antifungal activity against Candida albicans ATCC 2091 assessed as fungal growth inhibition incubated for 24 hrs by agar diffusion method; format: functional
[11] = test system: Pseudomonas aeruginosa; assay: Antibiofilm activity against Pseudomonas aeruginosa assessed as inhibition of biofilm formation incubated for 24 hrs by crystal violet method; format: functional, organism-based
[12] = test system: Candida albicans; assay: Antifungal activity against Candida albicans assessed as fungal growth inhibition; format: functional, organism-based
[13] = test system: Micrococcus luteus; assay: Antibacterial activity against Micrococcus luteus assessed as bacterial growth inhibition; format: functional, organism-based
[14] = test system: Staphylococcus aureus; assay: Antibacterial activity against Staphylococcus aureus assessed as bacterial growth inhibition; format: functional, organism-based
[15] = test system: Staphylococcus aureus; assay: Antibiofilm activity against Staphylococcus aureus ATCC 25923 assessed as inhibition of biofilm formation incubated for 24 hrs by crystal violet method; format: functional, organism-based; conditions: ATCC 25923, 24 h
[16] = test system: Staphylococcus aureus; assay: Antibiofilm activity against Methicillin-resistant Staphylococcus aureus B1 assessed as inhibition of biofilm formation measured after 24 to 48 hrs by MTT assay; format: functional; conditions: time 24-48 hrs
[17] = test system: Enterococcus faecalis; assay: Antibiofilm activity against Vancomycin-resistant Enterococcus faecalis W1 assessed as inhibition of biofilm formation measured after 24 to 48 hrs by MTT assay; format: functional; conditions: time 24-48 hrs
[18] = test system: Hepatitis C virus; assay: Antiviral activity against HCV J8CC infected in human Huh7.5 cells assessed as viral growth inhibition incubated for 48 hrs by light microscopy; format: functional, organism-based, Hepacivirus hominis; conditions: Huh7.5, 48 h
[19] = test system: Fusarium oxysporum; assay: Antifungal activity against Fusarium oxysporum Momordicae assessed as fungal growth inhibition incubated for 3 days by broth micro dilution method; format: functional; conditions: 72 h, time 3 day
[20] = test system: Staphylococcus aureus; assay: Antibacterial activity against Staphylococcus aureus ATCC 16339 assessed as bacterial growth inhibition incubated for 24 hrs by broth micro dilution method; format: functional
[21] = test system: Klebsiella pneumoniae; assay: Antibacterial activity against Klebsiella pneumoniae ATCC 14578 assessed as bacterial growth inhibition incubated for 24 hrs by broth micro dilution method; format: functional
[22] = test system: Acinetobacter baumannii; assay: Antibacterial activity against Acinetobacter baumannii ATCC 15122 assessed as bacterial growth inhibition incubated for 24 hrs by broth micro dilution method; format: functional
[23] = test system: Corynebacterium xerosis; assay: Antimicrobial activity against Corynebacterium xerosis assessed as microbial growth inhibition; format: functional
[24] = test system: Micrococcus luteus; assay: Antimicrobial activity against Sarcina lutea assessed as microbial growth inhibition; format: functional
[25] = test system: Pyricularia oryzae; assay: Antifungal activity against Pyricularia oryzae assessed as fungal growth inhibition incubated for 16 hrs by inverted microscopy; format: functional
[26] = test system: Cryptococcus neoformans; assay: Antifungal activity against Cryptococcus neoformans assessed as fungal growth inhibition; format: functional, organism-based

In the case of `CC(C)[C@H]1NC(=O)[C@@H]2CC3(C45C[C@H]6C(=O)N[C@H](C(C)C)C(=O)N6[C@H]4Nc4ccccc45)c4ccccc4N[C@@H]3N2C1=O` (stereo not given in full), the MIC [1] was 44 µM (≈ 25 µg/mL) and the MIC [2] was 44 µM (≈ 25 µg/mL).

Compound `O=C1CN=C(c2c[nH]c3ccc(O)cc23)c2c(O)ccc3[nH]cc1c23` has a pIC50 [3] of 4.32.

Work on `C/N=C1\NC(Cc2c[nH]c3cc(Br)c(Br)cc23)C(=O)N1C` (stereo not given) yielded an MIC [4] of 2.4 µM (≈ 0.994 µg/mL).

With `Cn1cnc(C(=O)c2nc3c4c5c(nccc5c(C(C[N+](C)(C)C)c5c[nH]c6cc(Br)ccc56)c3o2)C=CN4)c1` (stereo not given) the MIC [5] was 26.8 µM.

Work on `O=C(C1=N[C@@H](c2c[nH]c3cc(Br)ccc23)CN1)c1c[nH]c2ccccc12` yielded an MIC [6] of 15.4 µM (≈ 6.27 µg/mL).

With `C[C@@H]1N[C@H]2N(C1=O)c1ccccc1[C@@]2(O)C[C@H](C(=O)O)n1cnc2ccccc2c1=O` the MIC [7] was 14.9 µM (≈ 6.26 µg/mL).

`COc1ccc2[nH]c3cnc(-c4c[nH]c5cc(O)ccc45)c(C(=O)O)c3c2c1` was tested, and the “diameter of the inhibition zone (DIZ)” value [8] was 7 mm, the “diameter of the inhibition zone (DIZ)” value [9] was 10 mm and the “diameter of the inhibition zone (DIZ)” value [10] was 9 mm.

`C[N+](C)(C)CC(c1c[nH]c2cc(Br)ccc12)c1c2ccnc3c2c(c2nc(CS(=O)(=O)[O-])oc12)NC=C3` (stereo not given) was tested, and the MIC [5] was 27.5 µM (≈ 16 µg/mL).

`Cn1cc(-c2csc(-c3cn(CCN)c4ccc(F)cc34)n2)c2ccccc21` showed a pIC50 [11] of 5.00.

`Brc1ccc2c(-c3nc(-c4c[nH]c5ccccc45)c[nH]3)c[nH]c2c1` [NORTOPSENTIN B] gave a pIC50 [12] of 5.17.

For `C[C@@H]1NC(=O)[C@@H](Cc2c[nH]c3ccccc23)n2c1nc1ccccc1c2=O` [FUMIQUINAZOLINE F], the MIC [13] was 276 µM (≈ 99 µg/mL) and the MIC [14] was 382 µM (≈ 137 µg/mL).

Compound `COCCn1cc(-c2nc(-c3cn(C)c4ccccc34)cs2)c2cc(F)ccc21` has a pIC50 [15] of 6.40.

`CC(C)[C@@H]1NC(=O)[C@@H](C[C@]2(O)c3ccccc3N3C(=O)[C@@H](C)N[C@H]32)n2c1nc1ccccc1c2=O` showed a BIC [16] of 202.7 µM and a BIC [17] of 168.9 µM.

For `CC1(C)C(=O)N2c3ccccc3[C@@]3(C[C@H]4n5c(nc6ccccc6c5=O)C(=O)C(C)(C)[C@@]4(O)O3)[C@@H]2N1S(C)(=O)=O`, the pEC50 [18] was 3.96.

`O=C(c1c[nH]c2ccc(O)cc12)[C@H](O)[C@@H](O)C(=O)c1c[nH]c2ccc(O)cc12` gave a pIC50 [3] of 4.38 and a pIC50 [5] of 4.68.

`Cn1c[n+](C)c(C(=O)c2nc(C(=O)O)cc3c2[nH]c2ccc(O)cc23)c1[S+](C)[O-]` (stereo not given) showed a pIC50 [12] of 5.32.

`O=C1N[C@]2(CO)c3[nH]c4ccccc4c3C[C@@H]1n1c2nc2ccccc2c1=O` gave an MIC [7] of 16.8 µM (≈ 6.26 µg/mL), an MIC [19] of 4 µM (≈ 1.49 µg/mL) and an MIC [20] of 16.8 µM (≈ 6.26 µg/mL). For the same compound, the MIC [21] was 16.8 µM (≈ 6.26 µg/mL) and the MIC [22] was 16.8 µM (≈ 6.26 µg/mL).

Compound `Brc1ccc2c(-c3c[nH]c(-c4c[nH]c5cc(Br)ccc45)n3)c[nH]c2c1` [NORTOPSENTIN A] has a pIC50 [12] of 5.17.

`O=C1N=C(C(=O)c2c[nH]c3ccc(Br)cc23)N/C1=C\c1c[nH]c2ccccc12` showed an MIC [23] of 36.9 µM (≈ 16 µg/mL) and an MIC [24] of 36.9 µM (≈ 16 µg/mL).

`CC(C)=CCn1cc(CC2NC(=O)C(C(C)C)NC2=O)c2ccccc21` (stereo not given) gave an MIC [25] of 0.36 µM (≈ 0.127 µg/mL).

With `Oc1ccc2nc3oc4ccc5[nH]cc6cc[nH]c(c-3c2c1)c4c65` the pIC50 [3] was 4.29, the pIC50 [12] was 5.49 and the pIC50 [5] was 4.89. It also gave a pIC50 [26] of 5.19.

`O=C(O)c1c(-c2c[nH]c3cc(O)ccc23)ncc2[nH]c3ccc(O)cc3c12` was tested, and the “diameter of the inhibition zone (DIZ)” value [8] was 7 mm, the “diameter of the inhibition zone (DIZ)” value [9] was 10 mm and the “diameter of the inhibition zone (DIZ)” value [10] was 9 mm.

`O=C(O)[C@@H]1Cc2c[nH]c3ccc4oc5nc6ccc(O)cc6c-5c(c4c23)N1` showed a pIC50 [12] of 5.55 and a pIC50 [26] of 4.95.
